The source made the active and inactive calls. No cut-off for these calls is given here.
Legend:
[1] = molecular target: Homeodomain-interacting protein kinase 2 (Homo sapiens, UniProt Q9H2X6); assay: Inhibition of HIPK2 (unknown origin) using Ser/Thr 09 as substrate incubated for 60 mins in presence of ATP by Z'-Lyte assay
[2] = molecular target: Casein kinase II subunit alpha (Homo sapiens, UniProt P68400); assay: Inhibition of CSNK2A1(unknown origin) using Ser/Thr 11 as substrate incubated for 60 mins in presence of ATP by Z'-LYTE assay
Chain of Casein kinase II subunit alpha (P68400 whole entry): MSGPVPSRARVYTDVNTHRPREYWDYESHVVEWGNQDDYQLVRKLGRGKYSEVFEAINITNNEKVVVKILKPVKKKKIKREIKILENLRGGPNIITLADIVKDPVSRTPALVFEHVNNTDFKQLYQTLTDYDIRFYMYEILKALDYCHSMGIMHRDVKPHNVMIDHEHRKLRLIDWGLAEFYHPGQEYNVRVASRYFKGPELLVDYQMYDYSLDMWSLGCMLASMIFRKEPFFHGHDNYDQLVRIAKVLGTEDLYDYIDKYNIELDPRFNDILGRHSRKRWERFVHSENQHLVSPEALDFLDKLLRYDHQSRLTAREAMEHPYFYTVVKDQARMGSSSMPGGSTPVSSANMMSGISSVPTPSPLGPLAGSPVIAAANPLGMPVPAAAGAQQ

MOLM-14 [3] = assay: Down regulation of phosphorylated-STAT1 level in mouse xenografted with human MOLM-14 cells at 50 mg/kg, po administered twice a day for 21 days by Western blotting analysis; type: functional, organism-based; settings: time 21.0 day
MV4-11 [4] = assay: Down regulation of CYR61 level in human MV-4-11 cells at 0.03 to 3 uM after 48 hrs by Western blotting analysis; type: functional, cell-based; settings: dose 0.03-3 µM
U-251 = assay: Cytotoxicity against human U251 cells assessed as reduction in cell viability and measured after 7 days by Celltiter-glo luminescent cell viability assay; type: functional, cell-based; settings: U-251, 168 h
MOLM-14 [5] = assay: Down regulation of phosphorylated-STAT5 level in human MOLM-14 cells at 0.03 to 3 uM after 24 hrs by Western blotting analysis; type: functional, cell-based; settings: dose 0.03-3 µM
MOLM-14 [6] = assay: Down regulation of phosphorylated-STAT1 level in human MOLM-14 cells at 0.03 to 3 uM after 48 hrs by Western blotting analysis; type: functional, cell-based; settings: dose 0.03-3 µM
MSTO-211H = assay: Cytotoxicity against human MSTO-211H cells assessed as reduction in cell viability and measured after 7 days by Celltiter-glo luminescent cell viability assay; type: functional, cell-based; settings: 168 h
MOLM-14 [7] = assay: Antitumor activity against human MOLM-14 cells xenografted in athymic nude mouse assessed as tumor growth inhibition at 50 mg/kg, po administered twice a day with 5 days on and 2 days off dosing schedule for 3 weeks and measured every other day; type: functional, organism-based
MV4-11 [8] = assay: Down regulation of phosphorylated-STAT1 level in human MV-4-11 cells after 48 hrs by Western blotting analysis; type: functional, cell-based; settings: dose 0.03-3 µM
MOLM-14 [9] = assay: Down regulation of phosphorylated-STAT3 level in human MOLM-14 cells at 0.03 to 3 uM after 24 hrs by Western blotting analysis; type: functional, cell-based; settings: dose 0.03-3 µM
MV4-11 [10] = assay: Down regulation of CTGF level in human MV-4-11 cells at 0.03 to 3 uM after 48 hrs by Western blotting analysis; type: functional, cell-based; settings: dose 0.03-3 µM
MV4-11 [11] = assay: Down regulation of MCL-1 level in human MV-4-11 cells at 0.03 to 3 uM after 48 hrs by Western blotting analysis; type: functional, cell-based; settings: dose 0.03-3 µM
MV4-11 [12] = assay: Cytotoxicity against human MV-4-11 cells assessed as reduction in cell viability measured after 7 days by Celltiter-glo luminescent cell viability assay; type: functional, cell-based; settings: MV4-11, 168 h
SW-620 [13] = assay: Cytotoxicity against human SW620 cells assessed as reduction in cell viability measured after 7 days by Celltiter-glo luminescent cell viability assay; type: functional, cell-based; settings: SW-620, 168 h
[14] = Cytotoxicity against human H290 cells assessed as reduction in cell viability and measured after 7 days by Celltiter-glo luminescent cell viability assay; type: functional, cell-based; settings: NCI-H290, 168 h
Huh-7 = assay: Cytotoxicity against human Huh-7 cells assessed as reduction in cell viability and measured after 7 days by Celltiter-glo luminescent cell viability assay; type: functional, cell-based; settings: Huh-7, 168 h
MOLM-14 [15] = assay: Cytotoxicity against human MOLM-14 cells assessed as reduction in cell viability measured after 7 days by Celltiter-glo luminescent cell viability assay; type: functional, cell-based; settings: MOLM-14, 168 h
MV4-11 [16] = assay: Down regulation of phosphorylated-STAT3 level in human MV-4-11 cells after 48 hrs by Western blotting analysis; type: functional, cell-based; settings: dose 0.03-3 µM
MV4-11 [17] = assay: Down regulation of phosphorylated-STAT5 level in human MV-4-11 cells after 24 hrs by Western blotting analysis; type: functional, cell-based; settings: dose 0.03-10 µM
RS4-11 = assay: Cytotoxicity against human RS4-11 cells assessed as reduction in cell viability measured after 7 days by Celltiter-glo luminescent cell viability assay; type: functional, cell-based; settings: RS4-11, 168 h
MOLM-14 [18] = assay: Down regulation of phosphorylated-STAT5 level in human MOLM-14 cells at 0.03 to 3 uM after 48 hrs by Western blotting analysis; type: functional, cell-based; settings: dose 0.03-3 µM
MV4-11 [19] = assay: Down regulation of phosphorylated-STAT5 level in human MV-4-11 cells after 48 hrs by Western blotting analysis; type: functional, cell-based; settings: dose 0.03-3 µM
[20] = Cytotoxicity against human H2030-Brm3 cells assessed as reduction in cell viability measured after 7 days by Celltiter-glo luminescent cell viability assay; type: functional, cell-based; settings: H2030-BrM3, 168 h
MOLM-14 [21] = assay: Down regulation of phosphorylated-STAT1 level in mouse xenografted with human MOLM-14 cells by Western blotting analysis; type: functional, cell-based; settings: dose 10-100 mg/kg
MV4-11 [22] = assay: Antitumor activity against human MV-4-11 cells xenografted in NCr nu/nu mouse assessed as tumor growth inhibition at 50 mg/kg, po administered twice a day for 21 days and measured for every 3 days; type: functional, organism-based; settings: time 21.0 day
MV4-11 [23] = assay: Down regulation of phosphorylated-STAT1 level in human MV-4-11 cells after 24 hrs by Western blotting analysis; type: functional, cell-based; settings: dose 0.03-10 µM
CDK8/Cyclin C = CDK8/Cyclin C (Homo sapiens, UniProt P49336); assay: Inhibition of kinase tracer 236 binding to His-tagged CDK8/cyclin C (unknown origin) incubated for 60 mins by LanthaScreen Eu-Kinase binding assay; type: protein-complex assay
Chain of CDK8/Cyclin C (P49336 whole entry): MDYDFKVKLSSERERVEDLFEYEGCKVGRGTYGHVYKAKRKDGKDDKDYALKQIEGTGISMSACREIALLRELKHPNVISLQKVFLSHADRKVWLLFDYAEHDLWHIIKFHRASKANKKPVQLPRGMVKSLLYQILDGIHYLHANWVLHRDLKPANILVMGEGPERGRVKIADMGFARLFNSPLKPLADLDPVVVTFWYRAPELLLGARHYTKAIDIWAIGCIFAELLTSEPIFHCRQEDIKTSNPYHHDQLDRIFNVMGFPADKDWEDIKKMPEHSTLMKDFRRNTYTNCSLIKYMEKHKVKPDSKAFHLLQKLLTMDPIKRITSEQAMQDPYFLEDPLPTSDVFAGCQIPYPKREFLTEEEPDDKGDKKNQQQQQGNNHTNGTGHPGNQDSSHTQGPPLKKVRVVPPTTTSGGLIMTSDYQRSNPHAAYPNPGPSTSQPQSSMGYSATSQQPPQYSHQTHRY
Chain of CDK8/Cyclin C (P24863 whole entry, further chain): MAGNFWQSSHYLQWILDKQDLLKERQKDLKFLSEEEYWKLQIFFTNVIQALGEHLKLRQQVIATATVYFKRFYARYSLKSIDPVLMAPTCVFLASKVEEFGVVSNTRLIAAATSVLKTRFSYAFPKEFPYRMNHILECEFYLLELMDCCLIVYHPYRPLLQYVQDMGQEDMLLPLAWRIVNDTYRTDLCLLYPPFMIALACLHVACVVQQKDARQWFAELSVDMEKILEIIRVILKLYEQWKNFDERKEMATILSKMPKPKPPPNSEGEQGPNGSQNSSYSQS

[24] = Toxicity in athymic nude mouse xenografted with human MOLM-14 cells assessed as effect on body weight at 50 mg/kg, po administered twice a day with 5 days on and 2 days off dosing schedule for 21 days and measured for every other day; type: organism-based; settings: in vivo, 504 h, time 3 weeks
MV4-11 [25] = assay: Down regulation of phosphorylated-STAT3 level in human MV-4-11 cells after 24 hrs by Western blotting analysis; type: functional, cell-based; settings: dose 0.03-10 µM
SW-620 [26] = assay: Cytotoxicity against human SW620 cells assessed as reduction in cell viability measured after 7 days in presence of glycolysis inhibitor 2-DG by Celltiter-glo luminescent cell viability assay; type: functional, cell-based; settings: SW-620, 168 h
MOLM-14 [27] = assay: Down regulation of phosphorylated-STAT3 level in human MOLM-14 cells at 0.03 to 3 uM after 48 hrs by Western blotting analysis; type: functional, cell-based; settings: dose 0.03-3 µM
A204 = assay: Cytotoxicity against human A204 cells assessed as reduction in cell viability and measured after 7 days by Celltiter-glo luminescent cell viability assay; type: functional, cell-based; settings: A204, 168 h
OE33 = assay: Cytotoxicity against human OE33 cells assessed as reduction in cell viability measured after 7 days by Celltiter-glo luminescent cell viability assay; type: functional, cell-based; settings: OE33, 168 h
BT-474 = assay: Cytotoxicity against human BT474 cells assessed as reduction in cell viability and measured after 7 days by Celltiter-glo luminescent cell viability assay; type: functional, cell-based; settings: BT-474, 168 h
[28] = Toxicity in Ncr nu/nu mouse xenografted with human MV-4-11 cells assessed as effect on body weight at 50 mg/kg, po administered twice a day for 21 days and measured for every 3 days; type: organism-based; settings: in vivo, 504 h, time 21 day
COLO 205 = assay: Cytotoxicity against human COLO-205 cells assessed as reduction in cell viability measured after 7 days by Celltiter-glo luminescent cell viability assay; type: functional, cell-based; settings: COLO 205, 168 h
COLO357 = assay: Cytotoxicity against human COLO-357 cells assessed as reduction in cell viability and measured after 7 days by Celltiter-glo luminescent cell viability assay; type: functional, cell-based; settings: COLO357, 168 h
[29] = Cytotoxicity against human CLL-119 cells assessed as reduction in cell viability measured after 7 days by Celltiter-glo luminescent cell viability assay; type: functional, cell-based; settings: CLL-119, 168 h
[30] = Cytotoxicity against human A549-Brm3 cells assessed as reduction in cell viability measured after 7 days by Celltiter-glo luminescent cell viability assay; type: functional, cell-based; settings: A549-BrM3, 168 h
HCT-116 = assay: Cytotoxicity against human HCT-116 cells assessed as reduction in cell viability measured after 7 days by Celltiter-glo luminescent cell viability assay; type: functional, cell-based; settings: HCT-116, 168 h
MV4-11 [31] = assay: Down regulation of YAP level in human MV-4-11 cells at 0.03 to 3 uM after 48 hrs by Western blotting analysis; type: functional, cell-based; settings: dose 0.03-3 µM
A549 = assay: Cytotoxicity against human A549 cells assessed as reduction in cell viability measured after 7 days by Celltiter-glo luminescent cell viability assay; type: functional, cell-based; settings: A549, 168 h
[32] = Cytotoxicity against human TG-1 cells assessed as reduction in cell viability measured after 7 days by Celltiter-glo luminescent cell viability assay; type: functional, cell-based; settings: TG1, 168 h
[33] = molecular target: Cyclin-dependent kinase 19 (Homo sapiens, UniProt Q9BWU1); assay: Inhibition of kinase tracer 236 binding to GST-tagged CDK19 (unknown origin) incubated for 60 mins by LanthaScreen Eu-Kinase binding assay
Chain of Cyclin-dependent kinase 19 (Q9BWU1 whole entry): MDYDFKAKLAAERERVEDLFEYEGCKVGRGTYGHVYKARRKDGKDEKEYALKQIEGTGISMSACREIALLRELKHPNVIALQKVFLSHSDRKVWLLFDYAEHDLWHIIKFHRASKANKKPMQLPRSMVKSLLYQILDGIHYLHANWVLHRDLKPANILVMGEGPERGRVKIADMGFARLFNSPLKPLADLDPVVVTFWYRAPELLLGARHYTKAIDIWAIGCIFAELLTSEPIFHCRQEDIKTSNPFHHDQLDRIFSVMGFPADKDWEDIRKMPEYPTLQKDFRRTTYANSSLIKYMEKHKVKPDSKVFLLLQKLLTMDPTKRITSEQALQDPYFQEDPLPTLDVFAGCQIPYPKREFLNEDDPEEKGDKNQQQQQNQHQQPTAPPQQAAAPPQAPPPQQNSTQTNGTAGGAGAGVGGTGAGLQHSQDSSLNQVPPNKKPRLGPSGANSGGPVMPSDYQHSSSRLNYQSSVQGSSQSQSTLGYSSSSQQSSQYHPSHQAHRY

SET-2 = assay: Cytotoxicity against human SET2 cells assessed as reduction in cell viability measured after 7 days by Celltiter-glo luminescent cell viability assay; type: functional, cell-based; settings: SET-2, 168 h
MOLM-14 [34] = assay: Down regulation of phosphorylated-STAT1 level in human MOLM-14 cells at 0.03 to 3 uM after 24 hrs by Western blotting analysis; type: functional, cell-based; settings: dose 0.03-3 µM
MOLM-14 [35] = assay: Down regulation of phosphorylated-STAT5 level in mouse xenografted with human MOLM-14 cells at 50 mg/kg, po administered twice a day for 21 days by Western blotting analysis; type: functional, organism-based; settings: time 21.0 day
MV4-11 [36] = assay: Down regulation of C-MYC level in human MV-4-11 cells at 0.03 to 3 uM after 48 hrs by Western blotting analysis; type: functional, cell-based; settings: dose 0.03-3 µM
MCF7 = assay: Cytotoxicity against human MCF7 cells assessed as reduction in cell viability and measured after 7 days by Celltiter-glo luminescent cell viability assay; type: functional, cell-based; settings: MCF7, 168 h
NCI-H2052 = assay: Cytotoxicity against human H2052 cells assessed as reduction in cell viability and measured after 7 days by Celltiter-glo luminescent cell viability assay; type: functional, cell-based; settings: NCI-H2052, 168 h
HeLa = assay: Cytotoxicity against human HeLa cells assessed as reduction in cell viability measured after 7 days by Celltiter-glo luminescent cell viability assay; type: functional, cell-based; settings: 168 h

Chain of Homeodomain-interacting protein kinase 2 (Q9H2X6 whole entry): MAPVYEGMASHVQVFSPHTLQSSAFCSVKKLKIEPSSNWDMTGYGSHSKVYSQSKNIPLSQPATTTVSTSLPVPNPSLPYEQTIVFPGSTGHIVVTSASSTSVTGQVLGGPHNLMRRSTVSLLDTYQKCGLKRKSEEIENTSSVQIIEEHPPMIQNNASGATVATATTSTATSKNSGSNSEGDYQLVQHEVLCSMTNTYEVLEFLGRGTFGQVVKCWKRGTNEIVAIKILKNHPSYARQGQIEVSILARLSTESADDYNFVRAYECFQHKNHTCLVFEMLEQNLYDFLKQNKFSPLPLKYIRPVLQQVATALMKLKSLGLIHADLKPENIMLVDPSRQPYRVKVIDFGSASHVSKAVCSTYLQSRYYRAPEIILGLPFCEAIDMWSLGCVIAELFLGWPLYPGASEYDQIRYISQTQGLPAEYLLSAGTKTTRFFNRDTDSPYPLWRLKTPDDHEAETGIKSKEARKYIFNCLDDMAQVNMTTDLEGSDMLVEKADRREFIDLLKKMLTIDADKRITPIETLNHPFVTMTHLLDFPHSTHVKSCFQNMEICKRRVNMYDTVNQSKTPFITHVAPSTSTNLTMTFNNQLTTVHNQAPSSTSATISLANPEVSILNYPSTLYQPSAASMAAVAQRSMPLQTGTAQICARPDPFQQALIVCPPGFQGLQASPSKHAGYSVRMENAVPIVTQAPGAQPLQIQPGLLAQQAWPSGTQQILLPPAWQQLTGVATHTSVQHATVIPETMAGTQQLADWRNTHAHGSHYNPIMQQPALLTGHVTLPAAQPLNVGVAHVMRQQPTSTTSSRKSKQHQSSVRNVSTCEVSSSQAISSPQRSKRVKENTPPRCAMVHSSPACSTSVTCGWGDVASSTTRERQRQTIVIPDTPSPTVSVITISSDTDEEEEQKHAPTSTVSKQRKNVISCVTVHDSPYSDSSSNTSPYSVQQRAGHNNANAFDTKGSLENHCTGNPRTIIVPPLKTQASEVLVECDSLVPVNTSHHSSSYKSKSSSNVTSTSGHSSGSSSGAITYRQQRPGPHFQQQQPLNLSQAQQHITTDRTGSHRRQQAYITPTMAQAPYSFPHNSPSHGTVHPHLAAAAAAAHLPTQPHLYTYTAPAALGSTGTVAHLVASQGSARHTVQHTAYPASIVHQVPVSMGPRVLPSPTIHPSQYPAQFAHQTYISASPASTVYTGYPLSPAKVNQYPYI

O=C(O)c1ccc2c(c1)cc(Br)c1ccncc12
IC50 [1]: < 300 nM
IC50 [2]: < 300 nM

Nc1nccc2c(Br)cc3cc(C(=O)[O-])ccc3c12.[Na+]
IC50 [1]: < 300 nM
Activity (MOLM-14 [3]): Active
Activity (MV4-11 [4]): Active
IC50 (U-251): 1000 nM
Activity (MOLM-14 [5]): Active
Activity (MOLM-14 [6]): Active
IC50 [2]: < 300 nM
IC50 (MSTO-211H): 1000 nM
Activity (MOLM-14 [7]): Active
Activity (MV4-11 [8]): Dose-Dependent Effect
Activity (MOLM-14 [9]): Active
Activity (MV4-11 [10]): Active
Activity (MV4-11 [11]): Active
IC50 (MV4-11 [12]): < 1000 nM
IC50 (SW-620 [13]): 1000 nM
IC50 [14]: 1000 nM
IC50 (Huh-7): < 1000 nM
IC50 (MOLM-14 [15]): < 1000 nM
Activity (MV4-11 [16]): Dose-Dependent Effect
Activity (MV4-11 [17]): Dose-Dependent Effect
IC50 (RS4-11): < 1000 nM
Activity (MOLM-14 [18]): Active
Activity (MV4-11 [19]): Dose-Dependent Effect
IC50 [20]: < 1000 nM
Activity (MOLM-14 [21]): Dose-Dependent Effect
Activity (MV4-11 [22]): Active
Activity (MV4-11 [23]): Dose-Dependent Effect
IC50 (CDK8/Cyclin C): < 300 nM
Activity [24]: Non-Toxic
Activity (MV4-11 [25]): Dose-Dependent Effect
IC50 (SW-620 [26]): < 1000 nM
Activity (MOLM-14 [27]): Active
IC50 (A204): 1000 nM
IC50 (OE33): < 1000 nM
IC50 (BT-474): 1000 nM
Activity [28]: Non-Toxic
IC50 (COLO 205): < 1000 nM
IC50 (COLO357): 1000 nM
IC50 [29]: < 1000 nM
IC50 [30]: 1000 nM
IC50 (HCT-116): 1000 nM
Activity (MV4-11 [31]): Active
IC50 (A549): 1000 nM
IC50 [32]: < 1000 nM
IC50 [33]: < 300 nM
IC50 (SET-2): < 1000 nM
Activity (MOLM-14 [34]): Active
Activity (MOLM-14 [35]): Active
Activity (MV4-11 [36]): Active
IC50 (MCF7): 1000 nM
IC50 (NCI-H2052): 1000 nM
IC50 (HeLa): 1000 nM

CC[C@H](C)Nc1cc2cc(C(=O)O)ccc2c2cnccc12
IC50 [2]: < 300 nM

O=C(O)c1ccc2c(ccc3ccncc32)c1
IC50 [2]: < 300 nM

O=C(O)c1ccc2c(c1)cc([N+](=O)[O-])c1ccncc12
IC50 [2]: < 300 nM

CC(C)Nc1cc2cc(C(=O)O)ccc2c2cnccc12
IC50 [2]: < 300 nM

O=C(O)c1ccc2c(ccc3ccnc(Cl)c32)c1
IC50 [2]: < 300 nM
